Assay results as given in patent US20250135006A1, “AMPHIPHILIC TLR7/8 ADJUVANTS AND USES THEREOF” (Pfizer Inc., priority 2023, published 2025).

Experiments:
[1] = molecular target: T1, human toll like receptor 8 (hTLR8) (Homo sapiens, UniProt Q9NR97); assay: hTLR8 in-vitro functional assay (HEK-Blue hTLR8 SEAP reporter); type: cell-based; conditions: HEK-Blue hTLR8 cells, overnight incubation
T1 construct: host or cells: HEK293 (HEK-Blue hTLR8)
T1 sequence (Q9NR97 27-1041): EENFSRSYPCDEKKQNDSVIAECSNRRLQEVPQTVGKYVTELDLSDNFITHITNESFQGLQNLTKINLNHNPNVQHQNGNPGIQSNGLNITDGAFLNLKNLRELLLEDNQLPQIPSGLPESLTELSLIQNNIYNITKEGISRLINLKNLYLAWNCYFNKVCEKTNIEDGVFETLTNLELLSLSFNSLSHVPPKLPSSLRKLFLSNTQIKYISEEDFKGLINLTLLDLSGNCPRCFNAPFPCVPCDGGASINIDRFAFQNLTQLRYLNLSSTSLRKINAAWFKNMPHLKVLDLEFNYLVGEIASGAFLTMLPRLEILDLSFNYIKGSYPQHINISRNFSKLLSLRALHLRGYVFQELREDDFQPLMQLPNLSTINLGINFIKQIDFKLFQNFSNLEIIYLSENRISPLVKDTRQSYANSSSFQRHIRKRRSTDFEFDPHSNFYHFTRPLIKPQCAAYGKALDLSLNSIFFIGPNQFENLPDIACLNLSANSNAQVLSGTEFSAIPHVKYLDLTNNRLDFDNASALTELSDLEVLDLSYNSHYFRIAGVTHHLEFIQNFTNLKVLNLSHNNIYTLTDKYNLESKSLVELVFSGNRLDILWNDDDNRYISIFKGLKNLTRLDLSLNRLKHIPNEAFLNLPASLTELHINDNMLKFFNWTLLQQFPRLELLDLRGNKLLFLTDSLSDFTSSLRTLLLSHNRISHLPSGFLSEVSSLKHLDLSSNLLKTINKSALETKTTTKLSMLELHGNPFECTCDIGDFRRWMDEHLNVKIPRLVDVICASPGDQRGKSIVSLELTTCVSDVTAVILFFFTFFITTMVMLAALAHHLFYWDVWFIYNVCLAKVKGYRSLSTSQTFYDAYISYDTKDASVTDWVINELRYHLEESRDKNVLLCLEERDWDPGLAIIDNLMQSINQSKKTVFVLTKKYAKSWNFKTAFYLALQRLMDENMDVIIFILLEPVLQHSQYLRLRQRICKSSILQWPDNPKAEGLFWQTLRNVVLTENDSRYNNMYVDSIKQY
Excerpt: (§1) To determine the ability of test compounds to activate the human toll like receptor 7 (hTLR7) or human toll like receptor 8 (hTLR8), cell-based reporter systems were utilized. HEK293 cells stably overexpressing either hTLR7 or hTLR8 along with a reporter gene containing an optimized secreted embryonic alkaline phosphatase gene (SEAP), under the control of the IFN-b minimal promoter fused to five NF-kB and AP-1-binding sites, were obtained from Invivogen (HEK-Blue™ hTLR7, cat #Hkb-htlr7; HEK-Blue™ hTLR8, cat #Hkb-htlr8). Stimulation of hTLR7 or hTLR8 in these cells activates NF-kB and AP-1 and induces the production of SEAP which can be quantified using an alkaline phosphatase detection reagent.
(§2) On day one of the assay, compounds were prepared using 11-point half-log serial dilutions from a 10 mM DMSO stock solution and 50 nL was spotted into 384-well plates (PerkinElmer, cat #6007480). Positive and negative controls were also spotted within the assay plate and were used to determine percent effect during the analysis process. After resuspension in DMEM assay media containing FBS heat inactivated (10%), Glutamax (2 mM) and Penicillin/Streptomycin, 10,000 cells/20 ul/well were added to previously prepared compound plates. Plates were incubated overnight (16-20 hrs) at 37° C. in a 5% CO2 environment. Prewetted Microclime lids (Labcyte, LLS-0310) were used to prevent evaporation. On day two of the assay, QUANTI-Blue™ detection reagent was prepared by reconstituting QUANTI-Blue™ powder (InvivoGen, Rep-qb1) with 100 ml of sterile water and allowed to equilibrate to 37° C. for 15 minutes. 20 ul of QUANTI-Blue™ detection reagent was added to each well and plates were incubated at room temperature for 180 min. At the end of the incubation, plates were read on an Envision (Perkin Elmer) plate reader capturing absorbance at 650 nm.
(§3) Using Positive (tool compound) and Negative (DMSO) controls, the percent (%) effect was calculated for each sample using the following equation: […]
(§4) The % effect at each concentration of compound was calculated utilizing the ABase software suite (IBDS) and was relative to the amount of SEAP produced in the positive and negative control wells contained within each assay plate. The concentrations and % effect values for test compounds were fit using a 4-parameter logistic model in ABase and the concentration of compound that produced 50% response (EC50) was calculated.

[2] = molecular target: T2, human toll like receptor 7 (hTLR7) (Homo sapiens, UniProt Q9NYK1); assay: hTLR7 in-vitro functional assay (HEK-Blue hTLR7 SEAP reporter); type: cell-based; conditions: HEK-Blue hTLR7 cells, overnight incubation
T2 construct: host or cells: HEK293 (HEK-Blue hTLR7)
T2 sequence (Q9NYK1 27-1049): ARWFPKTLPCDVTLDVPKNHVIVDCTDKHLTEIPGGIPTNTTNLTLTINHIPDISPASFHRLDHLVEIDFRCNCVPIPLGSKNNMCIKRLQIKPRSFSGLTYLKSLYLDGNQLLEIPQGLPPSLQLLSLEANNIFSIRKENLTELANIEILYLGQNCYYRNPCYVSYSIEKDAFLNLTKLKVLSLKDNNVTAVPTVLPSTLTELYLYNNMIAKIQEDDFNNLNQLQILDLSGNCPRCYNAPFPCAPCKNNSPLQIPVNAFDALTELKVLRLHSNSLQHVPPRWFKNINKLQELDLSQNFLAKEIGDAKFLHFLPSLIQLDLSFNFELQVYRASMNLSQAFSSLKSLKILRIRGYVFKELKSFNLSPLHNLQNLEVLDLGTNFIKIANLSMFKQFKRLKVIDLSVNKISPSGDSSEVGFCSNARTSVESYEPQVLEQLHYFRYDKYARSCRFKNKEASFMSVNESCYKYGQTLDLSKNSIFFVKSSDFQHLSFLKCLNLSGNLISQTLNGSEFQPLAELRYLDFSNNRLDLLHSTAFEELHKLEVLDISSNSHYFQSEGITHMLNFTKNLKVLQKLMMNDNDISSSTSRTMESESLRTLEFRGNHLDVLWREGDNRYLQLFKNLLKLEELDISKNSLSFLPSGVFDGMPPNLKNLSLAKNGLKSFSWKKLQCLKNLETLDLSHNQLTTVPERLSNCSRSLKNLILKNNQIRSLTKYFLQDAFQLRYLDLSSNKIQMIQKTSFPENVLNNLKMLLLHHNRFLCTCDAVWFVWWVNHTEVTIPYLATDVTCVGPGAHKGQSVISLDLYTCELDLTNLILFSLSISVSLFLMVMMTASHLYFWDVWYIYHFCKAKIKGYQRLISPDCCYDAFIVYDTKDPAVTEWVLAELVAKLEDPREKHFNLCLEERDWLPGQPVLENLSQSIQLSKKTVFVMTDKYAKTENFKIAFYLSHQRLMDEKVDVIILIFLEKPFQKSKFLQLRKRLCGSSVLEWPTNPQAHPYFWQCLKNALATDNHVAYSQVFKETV
Excerpt: as §1, §2, §3, §4

EC50 [1]	EC50 [2]	Compound
14.9 µM	1680 nM	CCCCc1nc2c(N)nc3cc(CCCN4CCN(CCCOCCOCCOCCOCCOCCOCCOCCOCCNC(=O)O[C@H]5CC[C@@]6(C)C(=CC[C@H]7[C@@H]8CC[C@H]([C@H](C)CCCC(C)C)[C@@]8(C)CC[C@@H]76)C5)CC4)ccc3c2n1CC(C)(CO)CO [Compound 23, (20R)-cholest-5-en-3beta-yl {27-[4-(3-{4-amino-2-butyl-1-[3-hydroxy-2-(hydroxymethyl)-2-methylpropyl]-1H-imidazo[4,5-c]quinolin-7-yl}propyl)piperazin-1-yl]-3,6,9,12,15,18,21,24-octaoxaheptacosan-1-yl}carbamate]
> 25 µM	404 nM	CCCCc1nc2c(N)nc3cc(CCCN4CCN(CCCOCCOCCOCCOCCOCCOCCOCCOCCOCCOCCOCCOCCOCCOCCOCCOCCOCCOCCOCCOCCOCCOCCOCCOCCNC(=O)CCOCCOCCOCCOCCNC(=O)CCCOc5c(C)c(C)c6c(c5C)CC[C@@](C)(CCC[C@H](C)CCC[C@H](C)CCCC(C)C)O6)CC4)ccc3c2n1CC(C)(CO)CO [Compound 26, N-{75-[4-(3-{4-amino-2-butyl-1-[3-hydroxy-2-(hydroxymethyl)-2-methylpropyl]-1H-imidazo[4,5-c]quinolin-7-yl}propyl)piperazin-1-yl]-3,6,9,12,15,18,21,24,27,30,33,36,39,42,45,48,51,54,57,60,63,66,69,72-tetracosaoxapentaheptacontan-1-yl}-17-oxo-20-({(2R)-2,5,7,8-tetramethyl-2-[(4R,8R)-4,8,12-trimethyltridecyl]-3,4-dihydro-2H-1-benzopyran-6-yl}oxy)-4,7,10,13-tetraoxa-16-azaicosan-1-amide]
16 µM	181 nM	CCCCc1nc2c(N)nc3cc(CCCN4CCN(C(=O)CCOCCOCCOCCOCCOCCOCCOCCOCCOCCOCCOCCOCCOCCOCCOCCOCCOCCOCCOCCOCCOCCOCCOCCOCCNC(=O)O[C@H]5CC[C@@]6(C)C(=CC[C@H]7[C@@H]8CC[C@H]([C@H](C)CCCC(C)C)[C@@]8(C)CC[C@@H]76)C5)CC4)ccc3c2n1CC(C)(CO)CO [Compound 9, (3beta)-cholest-5-en-3-yl {75-[4-(3-{4-amino-2-butyl-1-[3-hydroxy-2-(hydroxymethyl)-2-methylpropyl]-1H-imidazo[4,5-c]quinolin-7-yl}propyl)piperazin-1-yl]-75-oxo-3,6,9,12,15,18,21,24,27,30,33,36,39,42,45,48,51,54,57,60,63,66,69,72-tetracosaoxapentaheptacont-1-yl}carbamate]
17.6 µM	276 nM	CCCCc1nc2c(N)nc3cc(CCCN4CCN(CCCOCCOCCOCCOCCNC(=O)CCOCCOCCOCCOCCNC(=O)O[C@H]5CC[C@@]6(C)C(=CC[C@H]7[C@@H]8CC[C@H]([C@H](C)CCCC(C)C)[C@@]8(C)CC[C@@H]76)C5)CC4)ccc3c2n1CC(C)(CO)CO [Compound 15, (20R)-cholest-5-en-3beta-yl {31-[4-(3-{4-amino-2-butyl-1-[3-hydroxy-2-(hydroxymethyl)-2-methylpropyl]-1H-imidazo[4,5-c]quinolin-7-yl}propyl)piperazin-1-yl]-15-oxo-3,6,9,12,19,22,25,28-octaoxa-16-azahentriacontan-1-yl}carbamate]
2.61 µM	282 nM	CCCCc1nc2c(N)nc3cc(CCCN4CCN(CCCOCCOCCOCCOCCOCCOCCOCCOCCOCCOCCOCCOCCOCCOCCOCCOCCOCCOCCOCCOCCOCCOCCOCCOCCNC(=O)CCOCCOCCOCCOCCNC(=O)O[C@H]5CC[C@@]6(C)C(=CC[C@H]7[C@@H]8CC[C@H]([C@H](C)CCCC(C)C)[C@@]8(C)CC[C@@H]76)C5)CC4)ccc3c2n1CC(C)(CO)CO [Compound 17, (3beta)-cholest-5-en-3-yl {91-[4-(3-{4-amino-2-butyl-1-[3-hydroxy-2-(hydroxymethyl)-2-methylpropyl]-1H-imidazo[4,5-c]quinolin-7-yl}propyl)piperazin-1-yl]-15-oxo-3,6,9,12,19,22,25,28,31,34,37,40,43,46,49,52,55,58,61,64,67,70,73,76,79,82,85,88-octacosaoxa-16-azahennonacont-1-yl}carbamate]

Compound	EC50 [1]	EC50 [2]
CCCCc1nc2c(N)nc3cc(CCCN4CCN(C(=O)OCc5ccc(NC(=O)[C@H](CCCNC(N)=O)NC(=O)[C@@H](NC(=O)COCCOCCNC(=O)O[C@H]6CC[C@@]7(C)C(=CC[C@H]8[C@@H]9CC[C@H]([C@H](C)CCCC(C)C)[C@@]9(C)CC[C@@H]87)C6)C(C)C)cc5)CC4)ccc3c2n1CC(C)(CO)CO [Compound 28, 4-((12S,15S)-1-(((3beta)-cholest-5-en-3-yl)oxy)-12-isopropyl-1,10,13-trioxo-15-(3-ureidopropyl)-5,8-dioxa-2,11,14-triazahexadecan-16-amido)benzyl 4-(3-(4-amino-2-butyl-1-(3-hydroxy-2-(hydroxymethyl)-2-methylpropyl)-1H-imidazo[4,5-c]quinolin-7-yl)propyl)piperazine-1-carboxylate]	4.48 µM	1890 nM
